Experimental data from patent US20060211651A1, “Persulfated oligosaccharide acting on selectins and chemokine” (Taisho Pharmaceutical Co., Ltd., priority 2002, published 2006).
Each block holds one molecule with its values, some of them ahead of it.

How the values were obtained:
[1] = biological target: T1, stromal cell-derived factor-1β (Homo sapiens, UniProt P48061); experiment: Binding of biotinylated oligosaccharide fraction (streptavidin-alkaline phosphatase) to SDF-1β; settings: FIG. 7 panel D; absorbance at 620 nm
T1 construct: purchased Pepro Tech
Protocol: (§1) First, each of oligosaccharides was biotinylated with biotin-LC-hydrazide at a reducing end. To each of the fraction a, the fraction c, the fraction e-1 and the fraction e-2 obtained in the above item (2), 125 mM EZ-link™ biotin-LC-hydrazide and 1M NaCNBH3 in dimethyl sulfoxide/acetic acid (7:3) were added. The resulting reaction mixture was incubated at 65° C. for 3 hours, and then incubated at 37° C. for 12.5 to 18.5 hours to biotinylate an oligosaccharide. Each of the resulting reaction products was subjected to Sephadex G-25 column as described above, to remove unreacted biotin-LC-hydrazide, thereby collecting the fraction containing a biotinylated oligosaccharide. Then, the resulting fraction was evaporated to dryness.
(§2) Then, a part of a fraction containing 16 pmol of each biotinylated oligosaccharide was dissolved in 0.5 ml of the buffer A, and thereafter, each of the resulting solutions and 1 μl (2 pmol) of streptavidin-conjugated alkaline phosphatase [manufactured by Promega] were incubated at 4° C. overnight.
(§3) Each of the resulting products was 3-fold diluted with the buffer A respectively. […] Binding was determined by measuring absorbance at 620 nm using Blue Phos™ substrate. […]

[2] = biological target: T2, γ-interferon inducible protein-10 (Homo sapiens, UniProt P02778); experiment: Binding of biotinylated oligosaccharide fraction (streptavidin-alkaline phosphatase) to IP-10; settings: FIG. 7 panel D; absorbance at 620 nm
Protocol: as §1, §2, §3

[3] = test system: secondary lymphoid tissue chemokine; experiment: Binding of biotinylated oligosaccharide fraction (streptavidin-alkaline phosphatase) to SLC; settings: FIG. 7 panel D; absorbance at 620 nm
Protocol: as §1, §2, §3

[4] = test system: P-selectin-Ig; experiment: Binding of biotinylated oligosaccharide fraction (streptavidin-alkaline phosphatase) to P-selectin-Ig; settings: FIG. 7 panel D; absorbance at 620 nm
Protocol: as §1, §2, §3

[5] = biological target: T3, L-selectin-Ig (Homo sapiens, UniProt P14151); experiment: Binding of biotinylated oligosaccharide fraction (streptavidin-alkaline phosphatase) to L-selectin-Ig; settings: FIG. 7 panel D; absorbance at 620 nm
T3 construct: purchased R & D Systems Inc
T3 sequence (P14151 with tags, fused parts or gaps limits assumed): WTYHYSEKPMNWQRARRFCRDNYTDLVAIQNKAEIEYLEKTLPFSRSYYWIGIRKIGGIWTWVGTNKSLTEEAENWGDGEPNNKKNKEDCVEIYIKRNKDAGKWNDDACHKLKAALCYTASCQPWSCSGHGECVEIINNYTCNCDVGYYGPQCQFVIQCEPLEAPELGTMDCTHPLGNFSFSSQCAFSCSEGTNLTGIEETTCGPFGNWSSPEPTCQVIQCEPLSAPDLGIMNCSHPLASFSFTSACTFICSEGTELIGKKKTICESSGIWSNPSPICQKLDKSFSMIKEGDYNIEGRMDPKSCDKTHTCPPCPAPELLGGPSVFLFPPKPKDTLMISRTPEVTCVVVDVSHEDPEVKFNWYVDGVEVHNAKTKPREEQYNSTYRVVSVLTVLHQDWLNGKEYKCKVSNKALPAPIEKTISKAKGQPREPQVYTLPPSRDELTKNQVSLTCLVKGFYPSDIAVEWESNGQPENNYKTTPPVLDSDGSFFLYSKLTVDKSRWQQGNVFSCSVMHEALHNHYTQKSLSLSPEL
Protocol: as §1, §2, §3

[6] = test system: P-selectin-Ig; experiment: Binding inhibition assay (ELISA), biotinylated versican to P-selectin-Ig, various concentrations; settings: dose-dependent, FIG. 2 panel B
Protocol: (§4) Inhibition assay of binding between versican and each of L-selectin, P-selectin and CD44 was performed as follows. First, each well on a 96 well flat bottom microtiter plate (Coster EIA/RIA plate No. 3690) was coated with L-selectin-Ig (3 μg/ml), P-selectin-Ig (4 μg/ml) or CD44-Ig (0.25 μg/ml) by a conventional procedure. […] The plate was incubated at room temperature for 2 hours. Thereafter, the plate was washed with the buffer A, and enzyme-linked immunosorbent assay was performed in the same manner as described in Kawashima, H. et al. [J. Biol. Chem., 275, 35448-35456 (2000)]. Binding was determined by measuring absorbance at 620 nm using alkaline phosphatase-conjugated streptavidin and Blue Phos™ substrate.

[7] = test system: CD44-Ig; experiment: Binding inhibition assay (ELISA), biotinylated versican to CD44-Ig, various concentrations; set-up: species or system human; settings: FIG. 2 panel C
Sequence of CD44-Ig (P16070 21-178 limits assumed): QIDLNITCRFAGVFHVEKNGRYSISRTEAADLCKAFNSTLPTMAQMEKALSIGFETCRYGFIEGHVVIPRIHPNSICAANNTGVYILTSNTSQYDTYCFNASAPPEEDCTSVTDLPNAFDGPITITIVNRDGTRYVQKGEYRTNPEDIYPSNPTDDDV
Protocol: as §4

[8] = biological target: T3, L-selectin-Ig; experiment: Binding inhibition assay (ELISA), biotinylated versican to L-selectin-Ig, various concentrations; settings: dose-dependent, FIG. 2 panel A
Protocol: as §4

[9] = biological target: T4, C-terminal truncated secondary lymphoid tissue chemokine (Homo sapiens, UniProt O00585); experiment: Sandwich-type ELISA, versican binding to SLC-T; settings: FIG. 4 panel B
T4 construct: gift: Dr. Melissa Swoop Wills, Vertex Pharmaceutical Co
T4 sequence (O00585 24-102 limits assumed): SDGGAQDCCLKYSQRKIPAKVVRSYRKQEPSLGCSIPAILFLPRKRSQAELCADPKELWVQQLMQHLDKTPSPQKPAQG
Protocol: (§5) ACHN cells were cultured for 2 days in the presence or absence of 100 mM sodium chlorate in RPMI 1640 containing 10% by weight of bovine fetal serum. After the conditioned medium was removed, cells were further cultured for 4 days in a serum-free medium, EX-CELL 610 HSF [manufactured by JRH Bioscience] in the presence or absence of 100 mM sodium chlorate. The conditioned medium was recovered, and spun at 10,000×g at 4° C. for 15 minutes to obtain each of a sodium chlorate-treated conditioned medium and sodium chlorate-untreated conditioned medium.
(§6) Binding between each of the resulting low-sulfated versican and intact versican, and chemokine was examined by sandwich-type enzyme-linked immunosorbent assay. […]
(§7) A conditioned medium of sodium chlorate-treated ACHN cells or a conditioned medium of sodium chlorate-untreated ACHN cells was added to a well of the resulting plate, followed by incubation for 1 hour. […] Binding was determined by measuring absorbance at 620 nm using alkaline phosphatase-conjugated streptavidin and Blue Phos™ substrate. […]

[10] = test system: anti-versican monoclonal antibody 2B1; experiment: Sandwich-type ELISA, versican binding to antibody 2B1; settings: FIG. 4 panel B
Protocol: as §5, §6, §7

[11] = test system: CD44-Ig; experiment: Sandwich-type ELISA, versican binding to CD44-Ig; set-up: species or system human; settings: FIG. 4 panel B
Protocol: as §5, §6, §7

[12] = biological target: T5, stromal cell-derived factor-1α (Homo sapiens, UniProt P48061); experiment: Sandwich-type ELISA, versican binding to SDF-1α; settings: FIG. 4 panel B
T5 construct: purchased Pepro Tech
Protocol: as §5, §6, §7

[13] = test system: E-selectin-Ig; experiment: Immunoprecipitation of versican from ACHN conditioned medium with E-selectin-Ig; type: binding; settings: FIG. 1 lanes 13 and 14
Protocol: ACHN cells were pre-incubated at 37° C. for 6 hours in RPMI 1640 containing 10% by weight of bovine fetal serum in the presence or absence of 30 mM sodium chlorate. A confluent monolayer of the resulting ACHN cells was labeled by incubation for 18 hours in the presence or absence of 30 mM sodium chlorate, in a medium of either of:
Immunoprecipitation was performed as follows, according to the method described in the publication of Kawashima, H. et al. [Int. Immunol., 11, 393-405 (1999); all teachings of which are hereby incorporated by reference] except that beads were washed using buffer A (0.05% Tween 20, 20 mM HEPES-NaOH, 0.15M NaCl, 1 mM CaCl2, 1 mM MgCl2, pH6.8).
Each of the antibody and the Ig chimera shown in FIG. 1 (equivalent to 10 μg) was coupled to Protein A-Sepharose column (equivalent to 10 μL) by a conventional method, to obtain antibody-coupled Protein A-Sepharose or Ig chimera-coupled Protein A-Sepharose. […]
Thereafter, the beads were washed with the buffer A, to obtain precipitates. The resulting precipitates were subjected to SDS-agarose-PAGE, and thereafter, signal ascribed to ^35S label on a gel was detected by autoradiography.

[14] = test system: P-selectin-Ig; experiment: Sandwich-type ELISA, versican binding to P-selectin-Ig; settings: FIG. 4 panel B
Protocol: as §5, §6, §7

[15] = test system: secondary lymphoid tissue chemokine; experiment: Sandwich-type ELISA, versican binding to SLC; settings: FIG. 4 panel B
Protocol: as §5, §6, §7

[16] = biological target: T6, platelet factor 4 (Homo sapiens, UniProt P02776); experiment: Sandwich-type ELISA, versican binding to PF4; settings: FIG. 4 panel B
T6 sequence (P02776 32-101): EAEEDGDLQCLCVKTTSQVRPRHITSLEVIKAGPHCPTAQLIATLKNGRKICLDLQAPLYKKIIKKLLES
Protocol: as §5, §6, §7

[17] = biological target: T2, γ-interferon inducible protein-10; experiment: Sandwich-type ELISA, versican binding to IP-10; settings: FIG. 4 panel B
Protocol: as §5, §6, §7

[18] = biological target: T3, L-selectin-Ig; experiment: Sandwich-type ELISA, versican binding to L-selectin-Ig; settings: FIG. 4 panel B
Protocol: as §5, §6, §7

[19] = biological target: T1, stromal cell-derived factor-1β; experiment: Sandwich-type ELISA, versican binding to SDF-1β; settings: FIG. 4 panel B
Protocol: as §5, §6, §7

[20] = biological target: T6, platelet factor 4; experiment: Binding of biotinylated oligosaccharide fraction (streptavidin-alkaline phosphatase) to PF4; settings: FIG. 7 panel D; absorbance at 620 nm
Protocol: as §1, §2, §3

[21] = biological target: monomeric L-selectin; settings: immobilized ligand; cited from earlier work

- binding of biotinylated oligosaccharide fraction to stromal cell-derived factor-1β [1]: bound
- binding of biotinylated oligosaccharide fraction to γ-interferon inducible protein-10 [2]: bound
- binding of biotinylated oligosaccharide fraction to secondary lymphoid tissue chemokine [3]: bound
- binding of biotinylated oligosaccharide fraction to P-selectin-Ig [4]: bound
- binding of biotinylated oligosaccharide fraction to L-selectin-Ig [5]: bound
Molecule: GlcAβ1-3GalNAc(4,6-O-disulfate)β1-4GlcAβ1-3GalNAc(4,6-O-disulfate) [fraction e-2]

- inhibition of binding between biotinylated versican and P-selectin-Ig [6]: not inhibited
- inhibition of binding between biotinylated versican and CD44-Ig [7]: not inhibited
- inhibition of binding between biotinylated versican and L-selectin-Ig [8]: not inhibited
Molecule: keratan sulfate

Molecule: low-sulfated versican: versican from conditioned medium of ACHN cells treated with 100 mM sodium chlorate, mainly unsulfated CS/DS chain
- binding to recombinant truncated-type secondary lymphoid tissue chemokine [9]: scarcely bound
- binding to anti-versican monoclonal antibody 2B1 [10]: bound
- binding to CD44-Ig [11]: bound
- binding to stromal cell-derived factor-1α [12]: did not bind

Molecule: unsulfated versican: versican from ACHN cells treated with 30 mM sodium chlorate
- interaction with E-selectin-Ig [13]: did not interact

Molecule: intact versican: versican from conditioned medium of sodium chlorate-untreated ACHN cells
- binding to recombinant truncated-type secondary lymphoid tissue chemokine [9]: scarcely bound
- binding to P-selectin-Ig [14]: bound
- binding to anti-versican monoclonal antibody 2B1 [10]: bound
- binding to CD44-Ig [11]: bound
- binding to secondary lymphoid tissue chemokine [15]: remarkably bound
- binding to platelet factor 4 [16]: remarkably bound
- binding to γ-interferon inducible protein-10 [17]: remarkably bound
- binding to stromal cell-derived factor-1α [12]: did not bind
- binding to L-selectin-Ig [18]: bound
- binding to stromal cell-derived factor-1β [19]: remarkably bound

- binding of biotinylated oligosaccharide fraction to stromal cell-derived factor-1β [1]: did not bind
- binding of biotinylated oligosaccharide fraction to platelet factor 4 [20]: moderately bound
- binding of biotinylated oligosaccharide fraction to γ-interferon inducible protein-10 [2]: did not bind
- binding of biotinylated oligosaccharide fraction to secondary lymphoid tissue chemokine [3]: did not bind
- binding of biotinylated oligosaccharide fraction to P-selectin-Ig [4]: did not bind
- binding of biotinylated oligosaccharide fraction to L-selectin-Ig [5]: did not bind
Molecule: GlcAβ1-3GalNAc(4,6-O-disulfate)β1-4GlcAβ1-3GalNAc(4-O-sulfate) [fraction e-1]

B1: GlyCAM-1: known ligand of L-selectin (protein, UniProt Q02596 20-151, looked up)
Glycosylation-dependent cell …: LPGSKDELQMKTQPTDAIPAAQSTPTSYTSEESTSSKDLSKEPSIFREELISKDNVVIESTKPENQEAQDGLRSGSSQLEETTRPTTSAATTSEENLTKSSQTVEEELGKIIEGFVTGAEDIISGASRITKS
- Kd [21]: 108 µM
- association rate [21]: ≥ 10^5 M^−1s^−1
